SMILES strings stand for the structures.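 All cell lines were grown in 96-well plates and treated with compound for 48 hours. Here, GI50 denotes the concentration required for 50% inhibition of growth. Definition used: TGI = concentration required for complete inhibition of growth.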

Among the test systems are HCT-116 colon; HL-60(TB) leukemia; MALME-3M melanoma; NCI-H23 lung; SF-268 CNS; SF-539 CNS; SK-MEL-5 melanoma; SK-OV-3 ovarian; SR leukemia; TK-10 renal.
Common to all, as to test: NCI tumour cell line growth inhibition, 48 h

Turning to `C[C@@H](Nc1nc(Nc2ccc(F)c(Cl)c2)nc2ccccc12)C1CC1`, the GI50 in the assay on HCT-116 colon was 1.49 µM; with HL-60(TB) leukemia, 2.45 µM; in the assay with MALME-3M melanoma it was 1.66 µM; in the assay with NCI-H23 lung, 1.48 µM; in the assay on SF-268 CNS it was 6.43 µM; in the assay with SF-539 CNS, 3.16 µM. The GI50 in the assay with SK-MEL-5 melanoma was 1.55 µM; with SK-OV-3 ovarian, 5.36 µM; in the assay on SR leukemia it was 1.63 µM; with TK-10 renal, 6.96 µM. For the same compound, the TGI with HCT-116 colon was 3.2 µM; with HL-60(TB) leukemia, 6.32 µM; in the assay on MALME-3M melanoma, 3.65 µM; in the assay with NCI-H23 lung, 9.34 µM; in the assay with SF-268 CNS it was 26.8 µM; in the assay on SF-539 CNS, 12.4 µM. Moreover, the TGI was found to be 2.96 µM with SK-MEL-5 melanoma, 17.3 µM in the assay on SK-OV-3 ovarian, 5.26 µM in the assay with SR leukemia and 20.3 µM with TK-10 renal.
Consider `O=[N+]([O-])c1cccc2nccc(NCCCO)c12`, for which the TGI is more than 100 µM in the assay with HCT-116 colon; 36.8 µM in the assay with HL-60(TB) leukemia; 22.1 µM with MALME-3M melanoma; 27.1 µM in the assay with NCI-H23 lung; 28.6 µM with SF-268 CNS; 29.4 µM in the assay on SF-539 CNS. Also, the TGI came to 14.4 µM in the assay with SK-MEL-5 melanoma, 61 µM in the assay on SK-OV-3 ovarian, 44.2 µM in the assay on SR leukemia and 52.3 µM in the assay with TK-10 renal.
On to `CCCCCCCCCCCCCCCCCC(=O)Nc1ccn(C2OC(CO)C(O)C2O)c(=O)n1` (centres undefined), for which the TGI with HCT-116 colon was more than 100 µM; in the assay with HL-60(TB) leukemia, 41.8 µM; in the assay with MALME-3M melanoma, more than 59.1 µM; in the assay with NCI-H23 lung, 98.7 µM; in the assay with SF-268 CNS, more than 100 µM; in the assay with SF-539 CNS, more than 100 µM. In addition, the TGI in the assay with SK-MEL-5 melanoma is more than 97.5 µM; with SK-OV-3 ovarian it was more than 100 µM; in the assay with SR leukemia it was 56.4 µM; in the assay with TK-10 renal, more than 100 µM.
For the compound `O=NN(CCCl)C(=O)NC1CCC(CC2CCC(NC(=O)N(CCCl)N=O)CC2)CC1` (centres undefined), the TGI in the assay with HCT-116 colon is more than 100 µM; in the assay on HL-60(TB) leukemia, more than 100 µM; in the assay on MALME-3M melanoma, more than 70.4 µM; in the assay with NCI-H23 lung, 99.6 µM; in the assay with SF-268 CNS, more than 52.4 µM; in the assay on SF-539 CNS, 25 µM. The TGI was more than 100 µM in the assay with SK-MEL-5 melanoma, more than 86.4 µM in the assay on SK-OV-3 ovarian, 88.7 µM with SR leukemia and more than 100 µM in the assay with TK-10 renal.
Consider `Cc1cccc(Cc2cnc(NC(=O)CCc3ccc(C)o3)s2)c1`, for which the GI50 in the assay with HCT-116 colon was 0.242 µM; with HL-60(TB) leukemia it was 0.161 µM; in the assay with NCI-H23 lung, 0.593 µM; with SF-268 CNS, 0.903 µM; in the assay with SF-539 CNS it was 0.202 µM; in the assay on SK-MEL-5 melanoma it was 0.107 µM. For the same compound, the values for the GI50 in the assay on SK-OV-3 ovarian, with SR leukemia and in the assay with TK-10 renal were 0.419 µM, 0.0543 µM and 1.49 µM, respectively. Also, the TGI in the assay on HCT-116 colon was more than 100 µM; in the assay with HL-60(TB) leukemia it was 0.44 µM; in the assay on MALME-3M melanoma, more than 100 µM; in the assay on NCI-H23 lung, more than 100 µM; in the assay with SF-268 CNS it was more than 100 µM; with SF-539 CNS it was 0.642 µM. Also, the TGI with SK-MEL-5 melanoma is 6.08 µM; in the assay on SK-OV-3 ovarian it was more than 100 µM; in the assay with SR leukemia, more than 100 µM; with TK-10 renal, more than 100 µM.
As for `CCN(CC)C(=S)[S][Bi]([S]C(=S)N(CC)CC)[S]C(=S)N(CC)CC`, the GI50 was 0.0858 µM in the assay on HCT-116 colon; 0.127 µM with HL-60(TB) leukemia; 0.168 µM with MALME-3M melanoma; 0.211 µM in the assay on NCI-H23 lung; 0.455 µM in the assay on SF-268 CNS; 0.195 µM in the assay on SF-539 CNS. The GI50 with SK-MEL-5 melanoma is 0.634 µM; in the assay with SK-OV-3 ovarian, 1.74 µM; in the assay with SR leukemia, 0.0353 µM; in the assay on TK-10 renal, 0.197 µM. Besides, the TGI in the assay on HCT-116 colon was found to be 0.247 µM; with HL-60(TB) leukemia, 19.9 µM; with MALME-3M melanoma, 0.317 µM; in the assay on NCI-H23 lung, 0.582 µM; in the assay with SF-268 CNS it was 1.77 µM; in the assay on SF-539 CNS, 0.436 µM. Further, the TGI in the assay on SK-MEL-5 melanoma is 1.7 µM; in the assay on SK-OV-3 ovarian, 3.14 µM; in the assay on SR leukemia, 23.4 µM; in the assay with TK-10 renal it was 0.374 µM.
As for `Cc1ccc([C@]2(C)CC[C@H](C)/C2=C\Br)c(O)c1`, the GI50 with HCT-116 colon is 2.88 µM; in the assay with HL-60(TB) leukemia it was 3.47 µM; in the assay on MALME-3M melanoma, 3.88 µM; in the assay on NCI-H23 lung, 11.4 µM; in the assay on SF-268 CNS it was 6.18 µM; in the assay with SF-539 CNS, 1.85 µM. The GI50 was 3.88 µM with SK-MEL-5 melanoma, 2.45 µM in the assay with SK-OV-3 ovarian, 2.87 µM in the assay with SR leukemia and 3.35 µM in the assay on TK-10 renal. For the same compound, the TGI amounted to 9.33 µM in the assay with HCT-116 colon; 12.6 µM in the assay on HL-60(TB) leukemia; 14.1 µM in the assay with MALME-3M melanoma; 24.9 µM in the assay with NCI-H23 lung; 21.7 µM with SF-268 CNS; 4.17 µM with SF-539 CNS. The TGI with SK-MEL-5 melanoma is 15.5 µM; in the assay on SK-OV-3 ovarian, 7.03 µM; in the assay with SR leukemia, 11.5 µM; in the assay on TK-10 renal, 14.1 µM.
As for `CC[C@H](C)C(=O)O[C@H]1C[C@H](O)C=C2C=C[C@H](C)[C@H](CC[C@@H](O)C[C@@H](O)CC(=O)O)[C@H]21`, the GI50 in the assay with HCT-116 colon, with HL-60(TB) leukemia, with MALME-3M melanoma, in the assay on NCI-H23 lung, with SF-268 CNS and in the assay on SF-539 CNS was more than 100 µM in each case. The GI50 in the assay with SK-MEL-5 melanoma, in the assay on SK-OV-3 ovarian, in the assay with SR leukemia and with TK-10 renal was more than 100 µM throughout. Further, the TGI in the assay on HCT-116 colon, in the assay with HL-60(TB) leukemia, in the assay with MALME-3M melanoma, in the assay on NCI-H23 lung, in the assay on SF-268 CNS and in the assay with SF-539 CNS was more than 100 µM throughout. The TGI in the assay on SK-MEL-5 melanoma, in the assay with SK-OV-3 ovarian, with SR leukemia and in the assay with TK-10 renal was more than 100 µM in each case.
Regarding `Cc1ccc(C(=O)CC2=Nc3nnc(CCCCCCCc4nnc5n4C(=O)C(CC(=O)c4ccc(C)cc4)=N5)n3C2=O)cc1`, the TGI in the assay with HCT-116 colon, in the assay with HL-60(TB) leukemia, in the assay on MALME-3M melanoma, in the assay on NCI-H23 lung, with SF-268 CNS and in the assay on SF-539 CNS was more than 100 µM each time. Further, the TGI in the assay with SK-MEL-5 melanoma, with SK-OV-3 ovarian, in the assay on SR leukemia and in the assay on TK-10 renal was more than 100 µM each time.

The record behind these values is PubChem BioAssay (NCI).
